# ChEMBL document CHEMBL1821631, “A novel binding assay identifies high affinity ligands to the rosiglitazone binding site of mitoNEET” (Bioorg Med Chem Lett, 2011)
# Active and inactive are the calls of the source. No cut-off for these calls is given here.
# Molecular target: T1, CDGSH iron-sulfur domain-containing protein 1 (Homo sapiens, UniProt Q9NZ45)
# T1 sequence (Q9NZ45 whole entry): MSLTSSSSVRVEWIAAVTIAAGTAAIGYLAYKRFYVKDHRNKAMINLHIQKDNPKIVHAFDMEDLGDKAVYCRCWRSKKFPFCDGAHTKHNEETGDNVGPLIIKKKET
# Test: Displacement of [3H]-rosiglitazone from human recombinant C-terminal His-tagged cytosolic domain of mitoNEET (32-108) by scintillation proximity assay
row,SMILES,IC50 [µM]
1,O=C1NC(=O)C(Cc2ccc(O)cc2)S1 (stereo unspecified) [GLITAZONE],14
2,CC(C)(C)c1cc(CC2SC(=O)N=C2O)cc(C(C)(C)C)c1O (stereo unspecified),7.36
3,O=C1NC(=S)S/C1=C/c1ccncc1,5.97
4,O=C1NC(=O)C(Cc2ccc3c(c2)OC(F)(F)O3)S1 (stereo unspecified),5.23
5,O=C(/C=C1/SC(=O)NC1=O)Nc1ccccc1,11.1
6,Cc1cc(CC2SC(=O)NC2=O)cc(C)c1O (stereo unspecified),9.56
7,Cc1cc(C)cc(CC2SC(=O)NC2=O)c1 (stereo unspecified),13.3
8,COc1ccccc1/C=C1\SC(=O)N(CCN)C1=O,82.3
9,O=C(/C=C1/SC(=O)NC1=O)Nc1cccc(O)c1,13.7

# Next, values leading:
row,IC50 [µM],SMILES
1,4.47,COc1cc(/C=C2/SC(=S)NC2=O)c(OC)cc1O
2,3.36,O=S(=O)(O)Oc1cc(O)cc(/C=C/c2ccc(O)cc2)c1
3,3.26,O=C1NC(=O)/C(=C/c2ccc3nccnc3c2)S1
4,2.93,O=C1NC(=O)/C(=C\c2cc(Br)c(O)cc2Br)S1
5,1.73,COc1cc(/C=C2\SC(=S)NC2=O)ccc1O

# Molecular target: T2, CDGSH iron-sulfur domain-containing protein 1 (Homo sapiens) (UniProt Q9NZ45)
# T2 sequence (whole entry): T1 sequence (Q9NZ45 whole entry)
# Test: Displacement of [3H]-rosiglitazone from human recombinant C-terminal His-tagged cytosolic domain of mitoNEET (32-108) at 80 uM by scintillation proximity assay
row,inhibition,SMILES
1,inactive,Oc1ccc(/C=C/c2cc(O)cc(O)c2)cc1
2,inactive,N#CCCN1C(=O)S/C(=C\c2ccccc2)C1=O
